Our source for the Kd values is PMC7035281 (Nature Communications, 2020).

Assay [1] deals with T1, LeuT (LeuTWT) (Aquifex aeolicus, UniProt O67854, W8A).
T1 construct: gene snf; full length, C-terminal thrombin site and 8xHis tag (pET16b), E. coli C41(DE3), purified in DDM; crystal of W8A a dimer in the asymmetric unit, residues 13-511 and 13-507 visible; smFRET variant from pQO18-TEV vector, His-tagged
Kind of assay: scintillation proximity saturation binding, purified protein in DDM; X-ray structure […] Å. Background: SPA uses beads or plates that emit light when radiolabelled molecules are held near them.

Assay [2] concerns the target T2, LeuT (LeuTWT) (Aquifex aeolicus, UniProt O67854).
T2 construct: gene snf; full length, C-terminal thrombin site and 8xHis tag (pET16b), E. coli C41(DE3), purified in DDM; crystal of W8A a dimer in the asymmetric unit, residues 13-511 and 13-507 visible; smFRET variant from pQO18-TEV vector, His-tagged
Kind of assay: scintillation proximity saturation binding, purified protein in DDM.

Structures are written as SMILES.

On to `N[C@@H](Cc1ccccc1)C(=O)O` [L-Phe], for which the dissociation constant Kd (commonly the equilibrium constant for the complex coming apart) is 796 ± 139 nM at LeuT (LeuTWT) [1] and 898 ± 1130 nM on LeuT (LeuTWT) [2].
